Test results taken from patent US9890124B2, “Benzazepine sulfonamide compounds” (Hoffmann-La Roche Inc., priority 2015, dated 2018).

What was measured:
human TLR8 = human TLR8 (Homo sapiens (Human), UniProt Q9NR97); assay: HEK-Blue human TLR8 cells NF-κB SEAP reporter assay; format: cell-based; conditions: stimulation for 20 hours
Description: (§1) For TLR8 and TLR7 activity testing, HEK-Blue human TLR8 or TLR7 cells (Invivogen, San Diego, Calif., USA) are used, respectively. These cells are designed for studying the stimulation of human TLR8 or TLR7 by monitoring the activation of NF-κB. A SEAP (secreted embryonic alkaline phosphatase) reporter gene is placed under the control of the IFN-b minimal promoter fused to five NF-κB and AP-1-binding sites. Therefore the reporter expression is regulated by the NF-κB promoter upon stimulation of human TLR8 or TLR7 for 20 hours. The cell culture supernatant SEAP reporter activity was determined using Quanti Blue kit (Invivogen, San Diego, Calif., USA) at a wavelength of 640 nm, a detection medium that turns purple/blue in the presence of alkaline phosphatase. EC50 values were determined using Activity Base analysis (ID Business Solution, Limited).

human TLR7 = human TLR7 (Homo sapiens (Human), UniProt Q9NYK1); assay: HEK-Blue human TLR7 cells NF-κB SEAP reporter assay; format: cell-based; conditions: stimulation for 20 hours
human TLR7, sequence (Q9NYK1 27-1049): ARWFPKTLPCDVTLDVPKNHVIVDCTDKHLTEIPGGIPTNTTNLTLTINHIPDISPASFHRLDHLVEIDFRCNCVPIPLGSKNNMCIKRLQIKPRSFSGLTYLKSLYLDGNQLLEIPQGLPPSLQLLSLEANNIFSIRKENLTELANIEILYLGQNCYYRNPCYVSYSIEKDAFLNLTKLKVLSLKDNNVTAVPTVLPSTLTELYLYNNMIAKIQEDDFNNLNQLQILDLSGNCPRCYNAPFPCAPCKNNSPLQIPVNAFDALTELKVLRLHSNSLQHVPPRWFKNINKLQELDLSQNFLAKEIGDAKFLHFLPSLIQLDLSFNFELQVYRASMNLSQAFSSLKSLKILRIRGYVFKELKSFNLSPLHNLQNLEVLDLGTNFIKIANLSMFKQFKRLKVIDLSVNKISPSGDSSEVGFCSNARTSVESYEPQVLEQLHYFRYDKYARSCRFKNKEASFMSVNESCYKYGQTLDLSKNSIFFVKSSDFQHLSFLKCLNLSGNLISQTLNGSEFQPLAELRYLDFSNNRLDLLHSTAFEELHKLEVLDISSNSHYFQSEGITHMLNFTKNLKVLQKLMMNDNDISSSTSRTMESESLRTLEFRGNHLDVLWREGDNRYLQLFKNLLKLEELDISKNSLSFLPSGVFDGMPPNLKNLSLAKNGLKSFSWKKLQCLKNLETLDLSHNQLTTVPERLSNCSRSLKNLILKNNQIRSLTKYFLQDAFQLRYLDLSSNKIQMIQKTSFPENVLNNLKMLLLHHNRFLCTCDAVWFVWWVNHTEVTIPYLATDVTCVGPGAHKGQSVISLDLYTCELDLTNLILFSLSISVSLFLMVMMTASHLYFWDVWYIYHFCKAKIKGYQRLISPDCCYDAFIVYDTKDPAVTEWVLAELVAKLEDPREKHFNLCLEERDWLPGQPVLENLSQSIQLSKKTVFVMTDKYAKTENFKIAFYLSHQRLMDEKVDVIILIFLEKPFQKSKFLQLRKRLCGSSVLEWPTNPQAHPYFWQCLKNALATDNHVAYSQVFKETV
Description: as §1

human TLR8, sequence (Q9NR97 27-1041): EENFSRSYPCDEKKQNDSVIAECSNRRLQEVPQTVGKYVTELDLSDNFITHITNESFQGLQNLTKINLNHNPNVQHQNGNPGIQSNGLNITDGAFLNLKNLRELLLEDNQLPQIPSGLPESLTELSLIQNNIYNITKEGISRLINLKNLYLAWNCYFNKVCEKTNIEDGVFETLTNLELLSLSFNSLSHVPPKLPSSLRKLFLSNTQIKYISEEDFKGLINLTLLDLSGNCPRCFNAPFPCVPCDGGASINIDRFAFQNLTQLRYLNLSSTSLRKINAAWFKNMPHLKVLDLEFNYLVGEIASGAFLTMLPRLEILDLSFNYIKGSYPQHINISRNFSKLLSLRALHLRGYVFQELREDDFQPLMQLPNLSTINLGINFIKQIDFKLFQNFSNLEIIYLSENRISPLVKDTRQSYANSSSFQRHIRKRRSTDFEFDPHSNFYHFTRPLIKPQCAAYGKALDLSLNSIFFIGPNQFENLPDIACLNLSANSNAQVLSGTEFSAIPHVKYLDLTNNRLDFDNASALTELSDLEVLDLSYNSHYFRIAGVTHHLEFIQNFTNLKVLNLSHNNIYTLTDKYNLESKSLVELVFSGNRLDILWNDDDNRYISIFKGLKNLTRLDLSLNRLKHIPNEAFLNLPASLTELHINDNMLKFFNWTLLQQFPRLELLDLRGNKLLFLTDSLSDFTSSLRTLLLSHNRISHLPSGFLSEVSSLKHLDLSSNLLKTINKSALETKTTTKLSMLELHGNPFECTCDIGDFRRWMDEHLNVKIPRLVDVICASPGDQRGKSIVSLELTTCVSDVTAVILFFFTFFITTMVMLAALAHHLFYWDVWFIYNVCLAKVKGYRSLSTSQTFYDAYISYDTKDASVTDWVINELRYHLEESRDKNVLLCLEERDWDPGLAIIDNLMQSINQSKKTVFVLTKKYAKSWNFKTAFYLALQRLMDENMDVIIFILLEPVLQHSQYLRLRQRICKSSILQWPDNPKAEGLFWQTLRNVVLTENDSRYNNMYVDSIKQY

| Structure (SMILES) | EC50 (human TLR8) [nM] | EC50 (human TLR7) [nM] |
| --- | --- | --- |
| CCCN(CCC)C(=O)C1=Cc2ccc(-c3cccc(S(N)(=O)=O)c3)cc2N=C(N)C1 [Example 1, 2-Amino-N,N-dipropyl-8-(3-sulfamoylphenyl)-3H-1-benzazepine-4-carboxamide] | 6 | 3000 |
| CCCN(CCC)C(=O)C1=Cc2ccc(-c3cccc(S(=O)(=O)NCCO)c3)cc2N=C(N)C1 [Example 2, 2-Amino-8-[3-(2-hydroxyethylsulfamoyl)phenyl]-N,N-dipropyl-3H-1-benzazepine-4-carboxamide] | 6 | 7000 |
| CCCN(CCC)C(=O)C1=Cc2ccc(-c3cccc(S(=O)(=O)N4CCCC4)c3)cc2N=C(N)C1 [Example 3, 2-amino-N,N-dipropyl-8-(3-pyrrolidin-1-ylsulfonylphenyl)-3H-1-benzazepine-4-carboxamide] | 6 | > 100000 |
| CCCN(CCC)C(=O)C1=Cc2ccc(-c3cncc(S(N)(=O)=O)c3)cc2N=C(N)C1 [Example 4, 2-Amino-N,N-dipropyl-8-(5-sulfamoyl-3-pyridyl)-3H-1-benzazepine-4-carboxamide] | 23 | 5000 |
| CCCN(CCC)C(=O)C1=Cc2ccc(-c3cccc(S(=O)(=O)N4CCC(O)C4)c3)cc2N=C(N)C1 (stereo not shown) [Example 5, 2-Amino-8-[3-(3-hydroxypyrrolidin-1-yl)sulfonylphenyl]-N,N-dipropyl-3H-1-benzazepine-4-carboxamide] | 3 | 103000 |
| CCCN(CCC)C(=O)C1=Cc2ccc(-c3ccc(S(=O)(=O)N4CCC(O)C4)cc3)cc2N=C(N)C1 (stereo not shown) [Example 6, 2-Amino-8-[4-(3-hydroxypyrrolidin-1-yl)sulfonylphenyl]-N,N-dipropyl-3H-1-benzazepine-4-carboxamide] | 10 | 104000 |
| CCCN(CCC)C(=O)C1=Cc2ccc(-c3cccc(S(=O)(=O)N4CC[C@@H](O)C4)c3)cc2N=C(N)C1 [Example 7, 2-Amino-8-[3-[(3R)-3-hydroxypyrrolidin-1-yl]sulfonylphenyl]-N,N-dipropyl-3H-1-benzazepine-4-carboxamide] | 5 | 18000 |
| CCCN(CCC)C(=O)C1=Cc2ccc(-c3cccc(S(=O)(=O)N4CC[C@H](O)C4)c3)cc2N=C(N)C1 [Example 8, 2-Amino-8-[3-[(3S)-3-hydroxypyrrolidin-1-yl]sulfonylphenyl]-N,N-dipropyl-3H-1-benzazepine-4-carboxamide] | 5 | 24000 |
| CCCN(CCC)C(=O)C1=Cc2ccc(-c3cccc(S(=O)(=O)N4CC(O)C4)c3)cc2N=C(N)C1 [Example 9, 2-Amino-8-[3-(3-hydroxyazetidin-1-yl)sulfonylphenyl]-N,N-dipropyl-3H-1-benzazepine-4-carboxamide] | 5 | 17000 |
| CCCN(CCC)C(=O)C1=Cc2ccc(-c3cccc(S(=O)(=O)N(C)CCO)c3)cc2N=C(N)C1 [Example 10, 2-Amino-8-[3-[2-hydroxyethyl(methyl)sulfamoyl]phenyl]-N,N-dipropyl-3H-1-benzazepine-4-carboxamide] | 4 | 20000 |
| CCCN(CCC)C(=O)C1=Cc2ccc(-c3cccc(S(=O)(=O)NCCOCCO)c3)cc2N=C(N)C1 [Example 11, 2-Amino-8-[3-[2-(2-hydroxyethoxy)ethylsulfamoyl]phenyl]-N,N-dipropyl-3H-1-benzazepine-4-carboxamide] | 8 | 12000 |
| CCCN(CCC)C(=O)C1=Cc2ccc(-c3cccc(S(=O)(=O)NCCCCCCO)c3)cc2N=C(N)C1 [Example 12, 2-Amino-8-[3-(6-hydroxyhexylsulfamoyl)phenyl]-N,N-dipropyl-3H-1-benzazepine-4-carboxamide] | 8 | 12000 |
| CCCN(CCC)C(=O)C1=Cc2ccc(-c3cccc(S(=O)(=O)N4CCC(O)CC4)c3)cc2N=C(N)C1 [Example 13, 2-Amino-8-[3-[(4-hydroxy-1-piperidyl)sulfonyl]phenyl]-N,N-dipropyl-3H-1-benzazepine-4-carboxamide] | 4 | 17000 |
| CCCN(CCC)C(=O)C1=Cc2ccc(-c3cc(C(F)(F)F)cc(S(=O)(=O)N4CC[C@@H](O)C4)c3)cc2N=C(N)C1 [Example 14, 2-Amino-8-[3-[(3R)-3-hydroxypyrrolidin-1-yl]sulfonyl-5-(trifluoromethyl)phenyl]-N,N-dipropyl-3H-1-benzazepine-4-carboxamide] | 9 | > 100000 |
| CCCN(CCC)C(=O)C1=Cc2ccc(-c3ccc(OC)c(S(=O)(=O)N4CC[C@@H](O)C4)c3)cc2N=C(N)C1 [Example 15, 2-Amino-8-[3-[(3R)-3-hydroxypyrrolidin-1-yl]sulfonyl-4-methoxy-phenyl]-N,N-dipropyl-3H-1-benzazepine-4-carboxamide] | 4 | 17000 |
| CCCN(CCC)C(=O)C1=Cc2ccc(-c3cccc(S(=O)(=O)N4CC(CO)C4)c3)cc2N=C(N)C1 [Example 16, 2-Amino-8-[3-[3-(hydroxymethyl)azetidin-1-yl]sulfonylphenyl]-N,N-dipropyl-3H-1-benzazepine-4-carboxamide] | 2 | 26000 |
| CCCN(CCC)C(=O)C1=Cc2ccc(-c3cccc(S(=O)(=O)N4CCC[C@@H](O)C4)c3)cc2N=C(N)C1 [Example 17, 2-Amino-8-[3-[[(3R)-3-hydroxy-1-piperidyl]sulfonyl]phenyl]-N,N-dipropyl-3H-1-benzazepine-4-carboxamide] | 5 | > 100000 |
| CCCN(CCC)C(=O)C1=Cc2ccc(-c3cccc(S(=O)(=O)N4CCC[C@H](O)C4)c3)cc2N=C(N)C1 [Example 18, 2-Amino-8-[3-[[(3S)-3-hydroxy-1-piperidyl]sulfonyl]phenyl]-N,N-dipropyl-3H-1-benzazepine-4-carboxamide] | 6 | > 100000 |
| CCCN(CCC)C(=O)C1=Cc2ccc(-c3cccc(S(=O)(=O)N4CC[C@@H](O)C4)c3C)cc2N=C(N)C1 [Example 19, 2-Amino-8-[3-[(3R)-3-hydroxypyrrolidin-1-yl]sulfonyl-2-methyl-phenyl]-N,N-dipropyl-3H-1-benzazepine-4-carboxamide] | 9 | 14000 |
| CCCN(CCC)C(=O)C1=Cc2ccc(-c3cncc(S(=O)(=O)N4CCNCC4)c3)cc2N=C(N)C1 [Example 20, 2-Amino-8-(5-piperazin-1-ylsulfonyl-3-pyridyl)-N,N-dipropyl-3H-1-benzazepine-4-carboxamide] | 17 | 5000 |
| CCCN(CCC)C(=O)C1=Cc2ccc(-c3cccc(S(=O)(=O)N4CCNCC4)c3)cc2N=C(N)C1 [Example 21, 2-Amino-8-(3-piperazin-1-ylsulfonylphenyl)-N,N-dipropyl-3H-1-benzazepine-4-carboxamide] | 18 | > 100000 |
| CCCN(CCC)C(=O)C1=Cc2ccc(-c3cncc(S(=O)(=O)N4CCC(N)C4)c3)cc2N=C(N)C1 (stereo not shown) [Example 22, 2-Amino-8-[5-(3-aminopyrrolidin-1-yl)sulfonyl-3-pyridyl]-N,N-dipropyl-3H-1-benzazepine-4-carboxamide] | 31 | 17000 |
| CCCN(CCC)C(=O)C1=Cc2ccc(-c3cc(C)cc(S(=O)(=O)N4CC[C@@H](O)C4)c3)cc2N=C(N)C1 [Example 23, 2-Amino-8-[3-[(3R)-3-hydroxypyrrolidin-1-yl]sulfonyl-5-methyl-phenyl]-N,N-dipropyl-3H-1-benzazepine-4-carboxamide] | 6 | 13000 |
